Experiment [1] has as its target T1, ctATC (ATC domain of C. thermophilum CAD-like protein) (Thermochaetoides thermophila, UniProt G0S583, N2045C/R2238C).
T1 construct: gene CTHT_0032600; isolated ATC domain aa 1939-2253; N-terminal His6-MBP cut with PreScission; E. coli BL21(DE3) pLysS; homotrimer, 119 kDa by SEC (ctATC2Cys, similar to WT)
The experiment can be described thus: colorimetric carbamoyl aspartate assay. The note with it: 5 mM CP; 50 mM Tris-acetate pH 8.3; 25 °C; 0.1 µM enzyme; substrate inhibition model; range printed jointly for WT and double mutant; disulfide-crosslinked trimer; read-out: S0.5^Asp. Format: biochemical.

Experiment [2] addresses T2, ctATC (ATC domain of C. thermophilum CAD-like protein) (Thermochaetoides thermophila, UniProt G0S583).
T2 construct: gene CTHT_0032600; isolated ATC domain aa 1939-2253; N-terminal His6-MBP cut with PreScission; E. coli BL21(DE3) pLysS; homotrimer, 119 kDa by SEC (ctATC2Cys, similar to WT)
Kind of experiment: colorimetric carbamoyl aspartate assay. Format: biochemical. The following applies: 5 mM CP; 50 mM Tris-acetate pH 8.3; 25 °C; 0.1 µM enzyme; substrate inhibition model; range printed jointly for WT and double mutant; read-out: S0.5^Asp.

Experiment [3] has as its target T1, ctATC (ATC domain of C. thermophilum CAD-like protein). The experiment can be described thus: differential scanning fluorimetry. Format: binding. The note with it: 1 mM PALA; 5 µM protein; pH 7.0; disulfide-crosslinked trimer; Tm without PALA 73.5 °C; transition state analog.
Experiment [4] deals with T2, ctATC (ATC domain of C. thermophilum CAD-like protein). Kind of experiment: differential scanning fluorimetry. Format: binding. The note with it: 1 mM PALA; 5 µM protein; pH 7.0; Tm without PALA 53.9 °C; transition state analog.
Experiment [5] has as its target ATC domain of C. thermophilum CAD-like protein with mutations N2045C and R2238C (ctATC2Cys) (Chaetomium thermophilum). Kind of experiment: crystal structure; crystals of ctATC2Cys free and with 2 mM carbamoyl phosphate (CP), space group P4(3)32, one subunit per asymmetric unit.
The target is the same in experiment [6]. Kind of experiment: SEC; Superdex 200 10/300 GL in 20 mM Tris-HCl pH 8.0, 150 mM NaCl, room temperature; molecular weight estimated from calibration with standards.
Experiment [7] deals with full-length C. thermophilum CAD-like protein (Chaetomium thermophilum). The experiment can be described thus: not stated; unpublished results: recombinant full-length protein isolated as hexameric particles.

For four compounds, Km, Tm and stoichiometry N results are on record in PMC9863657, “A Tailored Strategy to Crosslink the Aspartate Transcarbamoylase Domain of the Multienzymatic Protein CAD” (Molecules, 2023).

T1 sequence (G0S583 entry or part of it N2045C/R2238C): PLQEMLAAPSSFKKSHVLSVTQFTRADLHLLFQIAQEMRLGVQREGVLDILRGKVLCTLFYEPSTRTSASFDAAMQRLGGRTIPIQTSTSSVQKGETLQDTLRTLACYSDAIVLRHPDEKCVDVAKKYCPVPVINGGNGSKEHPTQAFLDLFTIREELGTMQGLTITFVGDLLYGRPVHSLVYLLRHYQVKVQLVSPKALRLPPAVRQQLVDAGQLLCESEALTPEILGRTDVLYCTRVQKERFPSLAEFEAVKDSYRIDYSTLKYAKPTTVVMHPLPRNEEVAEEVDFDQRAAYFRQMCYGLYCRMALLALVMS
T2 sequence (G0S583 entry or part of it): as the sequence (G0S583 entry or part of it N2045C/R2238C) above, with C107N, C300R counted along it

As for `N[C@@H](CC(=O)O)C(=O)O` [Asp, aspartate], the Km in experiment [1] and in experiment [2] was 1500 to 2000 µM each time.

As for `O=C(O)C[C@H](NC(=O)CP(=O)(O)O)C(=O)O` [PALA], the Tm in experiment [3] and in experiment [4] was ~ 90 °C each time.

With “ATC domain of C. thermophilum CAD-like protein with mutations N2045C and R2238C (ctATC2Cys) (domain or fragment)”, the stoichiometry N in experiment [5] and in experiment [6] was 3 throughout.

“full-length C. thermophilum CAD-like protein (natural protein)”: the stoichiometry N in experiment [7] came to 6.
